This passage reports Caco-2 and IC50 results from patent US12378243B2, “Quinoline compounds as inhibitors of KRAS” (Incyte Corporation, priority 2021, dated 2025).

The test system of data set [1] is Caco-2 cells. In words: Caco2 assay (permeability, A-B). In kind it is in vitro ADME. The note with it: Papp absorptive direction (A-B), test compound 50 μM, 120 minutes at 37° C. A digest of the protocol:
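Caco-2 monolayers grown 22-25 days on Transwells, used only at TEER ≥300 Ω·cm^2. Compound at 50 μM in HBSS added apically, receiver HBSS with 4% BSA; 120 min at 37 °C. LCMS quantification; Papp from receiver flux slope, membrane area and initial donor amount.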

In data set [2] the target is KRAS G12V mutant (Homo sapiens, UniProt P01116, G12V). In words: GDP-GTP exchange assay, KRAS G12V. The following applies: bodipy loaded KRAS G12V 2.5 nM; 3 hours incubation after adding GppNHp-SOS1 mixture; read-out: G12V_exchange. The format is biochemical.
KRAS G12V mutant, sequence (P01116 1-188 isoform P01116-2 G12V): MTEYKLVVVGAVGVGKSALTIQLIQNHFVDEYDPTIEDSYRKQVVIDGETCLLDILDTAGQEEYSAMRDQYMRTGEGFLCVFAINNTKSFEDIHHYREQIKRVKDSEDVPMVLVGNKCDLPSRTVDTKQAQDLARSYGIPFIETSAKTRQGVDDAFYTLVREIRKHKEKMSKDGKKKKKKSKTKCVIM
Data set [3] deals with KRAS G12D (Homo sapiens, UniProt P01116, G12D). In words: GDP-GTP exchange assay, KRAS G12D. In kind it is biochemical. The following applies: bodipy-loaded KRAS G12D 2.5 nM, GppNHp 500 uM, SOS1 150 nM; 4 hours pre-incubation, 2 hours incubation; read-out: G12D_exchange. The essentials:
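Nucleotide exchange started with 1 mM GppNHp and 300 nM SOS1, then 2 h at ambient temperature. IC50 from four-parameter logistic fit with variable Hill slope.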

KRAS G12D, sequence (P01116 1-188 isoform P01116-2 G12D): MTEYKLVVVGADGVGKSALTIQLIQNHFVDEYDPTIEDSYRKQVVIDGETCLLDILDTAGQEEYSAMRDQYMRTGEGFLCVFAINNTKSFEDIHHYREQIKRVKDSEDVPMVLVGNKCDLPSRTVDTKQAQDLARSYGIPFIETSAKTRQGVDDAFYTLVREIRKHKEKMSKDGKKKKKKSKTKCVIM

For the molecule `Cc1cc2c(-n3cncn3)nc3c(F)c(-c4cc(O)cc5ccc(F)cc45)c(CCC#N)cc3c2n1[C@H]1[C@H]2CN[C@@H]1C2` [Example 26, 3-(1-((1R,4R,5S)-2-Azabicyclo[2.1.1]hexan-5-yl)-6-fluoro-7-(7-fluoro-3-hydroxynaphthalen-1-yl)-2-methyl-4-(1H-1,2,4-triazol-1-yl)-1H-pyrrolo[3,2-c]quinolin-8-yl)propanenitrile], the Caco-2 entry in data set [1] (Table 3) is listed as “+ (a Caco-2 value of 50.5)”. Moreover, the IC50 in data set [2] and in data set [3] was under 100 nM each time.
On to `[2H]C([2H])([2H])c1nc2c(F)c(-c3cccc(Cl)c3Cl)c(CCC#N)cc2c2c1cc([C@H]1CCCN1C(=O)N1CC(F)(F)C1)n2[C@H]1[C@H]2CN[C@@H]1C2` [Example 42, 3-(1-((1R,4R,5S)-2-Azabicyclo[2.1.1]hexan-5-yl)-7-(2,3-dichlorophenyl)-2-((R)-1-(3,3-difluoroazetidine-1-carbonyl)pyrrolidin-2-yl)-6-fluoro-4-(methyl-d3)-1H-pyrrolo[3,2-c]quinolin-8-yl)propanenitrile], for which the Caco-2 result in data set [1] (Table 4) is “++ (a Caco-2 value of >0.5 but ≤1)”. Also, the IC50 in data set [2] and in data set [3] was under 100 nM throughout.
Regarding `CNC(=O)c1ccc(-c2nc3c(F)c(-c4cccc(Cl)c4Cl)c(CCC#N)cc3c3c2cc([C@@H](C)n2ccncc2=O)n3[C@H]2[C@H]3CN[C@@H]2C3)cc1F` (single isomer, unassigned) [Example 54b], the Caco-2 entry in data set [1] (Table 4) is given as “+++ (a Caco-2 value of >1)”. Also, the IC50 in data set [2] and in data set [3] was under 100 nM throughout.
In the case of `C[C@H](Oc1nc2c(F)c(-c3cc(O)cc4ccccc34)c(CCC#N)cc2c2c1cc(-c1cccnc1)n2C1C2CNC1C2)[C@@H]1CCCN1C` (stereo partly drawn) [Example 19, 3-(1-((endo)-2-Azabicyclo[2.1.1]hexan-5-yl)-6-fluoro-7-(3-hydroxynaphthalen-1-yl)-4-((S)-1-((S)-1-methylpyrrolidin-2-yl)ethoxy)-2-(pyridin-3-yl)-1H-pyrrolo[3,2-c]quinolin-8-yl)propanenitrile], in data set [1] (Table 3), the Caco-2 entry is “+ (a Caco-2 value of 50.5)”. In addition, the IC50 in data set [2] and in data set [3] was under 100 nM throughout.
Take `CNC(=O)c1ccc(-c2nc3c(F)c(-c4cccc5ccc(F)cc45)c(CCC#N)cc3c3c2cc([C@@H](C)N2CCOCC2=O)n3[C@H]2[C@H]3CN[C@@H]2C3)cn1` [Example 45, 5-(1-((1R,4R,5S)-2-Azabicyclo[2.1.1]hexan-5-yl)-8-(2-cyanoethyl)-6-fluoro-7-(7-fluoronaphthalen-1-yl)-2-((R)-1-(3-oxomorpholino)ethyl)-1H-pyrrolo[3,2-c]quinolin-4-yl)-N-methylpicolinamide]: the Caco-2 result in data set [1] (Table 4) was “+++ (a Caco-2 value of >1)”. The IC50 in data set [2] and in data set [3] was under 100 nM each time.
In the case of `COC(=O)N1C[C@@H](F)C[C@@H]1c1cc2c(-c3ccc(C(C)(C)O)nc3)nc3c(F)c(-c4cccc(Cl)c4Cl)c(CCC#N)cc3c2n1[C@H]1[C@H]2CN[C@@H]1C2` [Example 51, Methyl (2R,4S)-2-(1-((1R,4R,5S)-2-azabicyclo[2.1.1]hexan-5-yl)-8-(2-cyanoethyl)-7-(2,3-dichlorophenyl)-6-fluoro-4-(6-(2-hydroxypropan-2-yl)pyridin-3-yl)-1H-pyrrolo[3,2-c]quinolin-2-yl)-4-fluoropyrrolidine-1-carboxylate], the Caco-2 result in data set [1] (Table 4) was “+++ (a Caco-2 value of >1)”. Also, the IC50 in data set [2] and in data set [3] was under 100 nM each time.
On to `N#CCCc1cc2c(ncc3cc([C@H]4CCCN4C(=O)N4CC(F)(F)C4)n([C@H]4[C@H]5CN[C@@H]4C5)c32)c(F)c1-c1cccc(Cl)c1Cl` [Example 43, 3-(1-((1R,4R,5S)-2-Azabicyclo[2.1.1]hexan-5-yl)-7-(2,3-dichlorophenyl)-2-((R)-1-(3,3-difluoroazetidine-1-carbonyl)pyrrolidin-2-yl)-6-fluoro-1H-pyrrolo[3,2-c]quinolin-8-yl)propanenitrile], for which the Caco-2 result in data set [1] (Table 4) is given as “+++ (a Caco-2 value of >1)”. In addition, the IC50 in data set [2] and in data set [3] was under 100 nM each time.
